# Like-named read-outs stand apart in the source and are kept apart here.
# System: TCR 47BE7
# Assay: IFNγ intracellular cytokine staining of tgTCR 47BE7 CD8^+ T cells stimulated with peptide
# Format: cell-based, mouse
# Details: for EC50: tgTCR 47BE7 CD8^+ T cells, titrated peptide and αCD28, 6 hours, ICS
# Description: Fig. 2 | Neoantigen-reactive CD8^+ T cells recognise cognate peptide in vitro and in vivo. a, Table detailing attributes of tumour-reactive T cell receptors (TCRs), including neoantigen-reactive (top) and tumour-associated antigen-reactive (TAA-reactive) (bottom) TCRs isolated upon vaccination. b, Neoantigen-reactive CD8^+ T cell responses were induced by vaccination; isolated tetramer^+ T cells were stimulated for 6 hours with (varying concentrations of) cognate peptide and αCD28 and subsequently analyzed via intracellular staining (ICS) flow cytometry for IFNγ expression. c, Transgenic (tg)TCR CD8^+ T cells were co-incubated with varying concentrations of cognate mutant (MT) peptide or wild type (WT) peptide (x-axis) and αCD28 for 6 hours; intracellular staining (ICS) was performed subsequently. Percentage of T cells expressing IFNγ of a parent CD3^+CD8^+ population is shown on y-axis, normalised to maximum IFNγ expression. MT peptide values are shown as clear circles, and WT as filled, black circles. […] TgTCR CD8^+ T cells expressing the indicated TCR were stimulated, as described in c, with titrated mutant (MT) or wild-type (WT) peptide and IFNγ production was measured by ICS. […] Cytokine production was measured by intracellular staining (ICS) flow cytometry (n=3/condition). […] Heatmap shown summarises the frequency of CD8^+tgTCR^+IFγ^+. f, C57BL/6 mice (n=16–26/group) were treated with Hsf2 neoantigen vaccine or PBS (mock) in accordance with timeline shown (top). tumour growth was monitored via external caliper measurement and plotted versus time since tumour inoculation (bottom). g, Tetramer staining on CD3^+ CD8^+ T cells isolated from tumour-infiltrating lymphocytes (TIL) or peripheral blood mononuclear cells (PBMCs) from mice vaccinated with each of the neoantigens listed, using same methodology as described in b. h, Schematic describing administration of ACT in vivo. […]
# Fig. 4 | Structure of the pMHC-TCR ternary complex. a, Kinetics of TCR-47BE7 binding to immobilised H2-D^b/Hsf2 p.K72N as determined by biolayer interferometry. […]
SMILES,"EC50 (n=3, read-out: functional avidity, half-maximal IFNγ production (EC50))",cytokine production on a per-cell basis at saturating peptide concentrations (MT versus WT peptide),"EC50 (95%CI NR, read-out: half-maximal IFNγ production (EC50))"
CC[C@H](C)[C@H](NC(=O)[C@H](Cc1c[nH]cn1)NC(=O)[C@@H](NC(=O)[C@@H](NC(=O)[C@H](CC(N)=O)NC(=O)[C@H](CCCNC(=N)N)NC(=O)[C@H](Cc1ccccc1)NC(=O)CNC(=O)[C@@H](N)Cc1ccc(O)cc1)C(C)C)C(C)C)C(=O)O [Hsf2 p.K72N68–76],5.61e-06 µM,,
CC[C@H](C)[C@H](NC(=O)[C@H](Cc1c[nH]cn1)NC(=O)[C@@H](NC(=O)[C@@H](NC(=O)[C@H](CCCCN)NC(=O)[C@H](CCCNC(=N)N)NC(=O)[C@H](Cc1ccccc1)NC(=O)CNC(=O)[C@@H](N)Cc1ccc(O)cc1)C(C)C)C(C)C)C(=O)O [Hsf2_68–76],,partial agonist only,8.7 µM

# Reference: PMC9915759, “Structural Basis for Self-Discrimination by Neoantigen-Specific TCRs” (Research Square, 2023)
